Results: ChEMBL document CHEMBL3112517, “Identification of dihydrostilbenes in Pholidota chinensis as a new scaffold for GABAA receptor modulators” (Bioorg Med Chem, 2014)

Legend:
[1] = Modulation of GABAA alpha4beta2gamma2S receptor (unknown origin) expressed in Xenopus laevis oocytes assessed as potentiation of EC3 to 10 GABA-induced chloride ion current at holding potential -70 mV by two-microelectrode voltage clamp assay; assay type: cell-based; conditions: Homo sapiens
[2] = target: GABA A receptor alpha-3/beta-2/gamma-2 (Homo sapiens) (UniProt P47870+P18507+P34903); assay: Modulation of GABAA alpha3beta2gamma2S receptor (unknown origin) expressed in Xenopus laevis oocytes assessed as potentiation of EC3 to 10 GABA-induced chloride ion current at holding potential -70 mV at 1 to 300 uM by two-microelectrode voltage clamp assay relative to GABA-treated control; assay type: cell-based
[3] = Potency index, ratio of compound activity for modulation of rat GABAA alpha1beta2gamma2S receptor assessed as EC3 to 10 GABA-induced chloride ion current to triazolam activity for modulation of GABAA alpha1beta2gamma2S receptor (unknown origin) assessed as potentiation of EC5 to 10 GABA-induced chloride ion current

EC50 [1]: 26.2 µM
Imax [2]: 1690%
Ratio [3]: 4
SMILES: COc1cc(O)cc(CCc2cccc(O)c2)c1 [BATATASIN III]
